From article PMC12787000 (Molecules, 2025)

What was measured:
518A2 cells = assay: MTT cell viability assay, 518A2; type: cell-based; settings: Homo sapiens; 518A2, MTT, 72 h
Experimental: A375, MRC-5, and HaCaT cell lines were obtained from the American Type Culture Collection (ATCC). 518A2 cell line was kindly provided by Dr. […]ć. All cell lines were cultured in RPMI 1640 medium supplemented with 2 g/L glucose, 10% fetal bovine serum (FBS), and antibiotics. […] Cell viability was assessed using the MTT assay (Sigma Aldrich, #M5655). […] After 72 h of incubation, absorbance was measured at 570 nm using a Multiskan SkyHigh microplate reader (Thermo Fisher Scientific, Helsinki, Finland). Values were corrected by subtracting the absorbance measured in wells containing cell-free medium with tested compounds.

A375R cells = assay: Cell cycle distribution (PI, flow cytometry), A375R; type: cell-based; settings: 25 µM, 72 h
Experimental: A375 and A375R cells were seeded in 6-well plates at a density of 150,000 cells per well. On the following day, the cells were treated with 25 µM concentrations of compounds 1, 3, and 8, as well as telmisartan. After 72 h of incubation, the cells were harvested using trypsin, washed with phosphate-buffered saline (PBS), fixed in ethanol, and stored at −20 °C until analysis. Ethanol-fixed cells were treated with RNase A (1 mg/mL) and stained with propidium iodide (PI; 400 µg/mL). A total of 20,000 events were recorded per sample. Quantitative analysis of the cell cycle phase distribution was performed by flow cytometry using a FACSCalibur flow cytometer (Becton Dickinson, San Jose, CA, USA) and BD CellQuest Pro Version 5.2.1 software. Experiment was performed three times. Cells under treatment were compared to controls for each cell phase separately with one-way ANOVA and Dunnett’s multiple comparison tests. p < 0.05 was considered statistically significant.

[1] = Stability in biological media (HPLC); type: physicochemical; settings: room temperature
Experimental: To test stability in biological media, three best drug candidates (compounds 1, 3, and 8) were dissolved in 0.05 M hydrochloric acid, pH 2.0, and phosphate buffer, pH 5.5 (prepared by dissolving sodium dihydrogen phosphate dihydrate and disodium hydrogen phosphate in distilled water, followed by the adjustment of pH by ortho-phosphoric acid) and RPMI 1640 medium. Stock solutions in DMSO (2 mg/mL) were diluted by corresponding medium to obtain working solutions (0.02 mg/mL) and incubated at room temperature in 0.05 M hydrochloric acid (2 h), phosphate buffer pH 5.5 (5 h), and RPMI 1640 medium (72 h). Compounds were injected freshly prepared, and after incubation time, the differences in concentrations was expressed as percentages. Quantification was performed on Dionex Ultimate 3000 HPLC system (Thermo Fisher Scientific, Dreieich, Germany), consisting of Dionex Ultimate 3000 quaternary pump, autosampler, and DAD detector. The column was Zorbax Extend C18 (150 mm × 4.6 mm, 5 µm particle size). The mobile phase was 0.1% formic acid/acetonitrile = 50/50 (compound 1) and 60/40 (compounds 3 and 8). The column temperature was adjusted to 25 °C, and the flow rate was 0.5 mL/min. The detection was performed at 300 nm.

Compound | IC50 (518A2 cells) [µM] | Cell cycle distribution (A375R cells) | Change in concentration after incubation in phosphate buffer pH 5.5 ([1]; phosphate buffer pH 5.5, 5 h) [%] | Change in concentration after incubation in 0.05 M hydrochloric acid ([1]; 0.05 M HCl, pH 2.0, 2 h) [%] | Change in concentration after incubation in RPMI 1640 medium ([1]; RPMI 1640 medium, 72 h) [%]
CCCc1nc2c(C)cc(-c3nc4ccccc4n3C)cc2n1Cc1ccc(-c2ccccc2C(=O)NC(Cc2ccc(O)cc2)C(=O)O)cc1 (stereo not shown) [compound 3, 2-{[4′-(1,7′-dimethyl-2′-propyl-1H-[2,5′]bibenzoimidazolyl-3′-ylmethyl)-biphenyl-2-carbonyl]-amino}-3-(4-hydroxy-phenyl)-propionic acid] | 31 ± 2.38 | cell cycle profile comparable to that of the untreated control cells | 3.49 |  | 
CCCc1nc2c(C)cc(-c3nc4ccccc4n3C)cc2n1Cc1ccc(-c2ccccc2C(=O)NC(Cc2ccccc2)C(=O)O)cc1 (stereo not shown) [compound 8, 2-{[4′-(1,7′-dimethyl-2′-propyl-1H-[2,5′]bibenzoimidazolyl-3′-ylmethyl)-biphenyl-2-carbonyl]-amino}-3-phenyl-propionic acid] | 28.4 ± 2.66 | cell accumulation in the G0/G1 phase |  | 3.04 | 2.00
